What was measured:
[1] = tested on: NCI-H929 cells; experiment: Cell viability assay (NCI-H929 cells), CCK-8; type: cell-based; settings: Homo sapiens, NCI-H929, 24 h, 5% FBS
Outline: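 NCI-H929 cells from ATCC were seeded at 20000 cells/well in 95 μL of culture medium in 96-well plates and grown for 4 hrs. Compounds, serially diluted in DMSO and further diluted in medium, were added as 5 μL, and cells were incubated for 24 hrs at 37° C. with 5% CO2. Viability was measured with CCK-8.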

[2] = tested on: OPM-2 cells; experiment: Cell viability assay (OPM-2 cells), CCK-8; type: cell-based; settings: Homo sapiens, OPM-2, 24 h, 5% FBS
Outline: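 OPM-2 myeloma cells (20000/well) exposed to serially diluted compound for 24 h at 37 °C, 5% CO2, then incubated 4 h with CCK-8 and read at 450 nm. Readings normalized to vehicle; IC50 from nonlinear regression.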

[3] = molecular target: T1, Mcl-1 protein (residues 171-323) (Homo sapiens, UniProt Q07820); experiment: Inhibition of Mcl-1 by fluorescence polarization (FP) competitive binding assay with FAM-Bid tracer; settings: 2 nM FAM-Bid, 20 nM Mcl-1, 30 min
T1 construct: Tag-free Mcl-1 protein (residues 171-323) was used in the FP assay
Outline: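 Tag-free Mcl-1 (20 nM) with 2 nM FAM-Bid peptide in PBS, 0.01% BGG, 0.01% Triton X-100, 5% DMSO, 30 min at room temperature. FP read at Ex 485/Em 528 nm. IC50 from 10-point curves normalised to DMSO and no-protein controls.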

T1 sequence (Q07820 171-323): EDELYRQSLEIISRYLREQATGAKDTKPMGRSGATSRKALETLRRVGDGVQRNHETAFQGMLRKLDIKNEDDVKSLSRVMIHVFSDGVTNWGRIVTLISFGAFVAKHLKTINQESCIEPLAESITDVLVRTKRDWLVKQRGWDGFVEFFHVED

SMILES | IC50 [1] [nM] | IC50 [3] [nM] | IC50 [2] [nM]
C[C@@H]1[C@@H](C)S(=O)(=O)NC(=O)c2ccc3c(c2)N(C[C@@H]2CC[C@H]2[C@@H](OCCN2C[C@@H](C)O[C@@H](C)C2)C2=C[C@H]1C2)C[C@@]1(CCCc2c1ccc(Cl)c2F)CO3 [compound 82, (1S,11′R,12′S,13′R,16′R,16a′R,18a′R,E)-6-chloro-16′-(2-((2S,6R)-2,6-dimethylmorpholino)ethoxy)-5-fluoro-11′,12′-dimethyl-3,4,12′,13′,16′,16a′,17′,18′,18a′,19′-decahydro-1′H,2H,3′H,11′H-spiro[naphthalene-1,2′-[5,7]etheno[13,15]methanocyclobuta[i][1,4]oxazepino[3,4-f][1]thia[2,7]diazacyclohexadecin]-8′(9′H)-one 10′,10′-dioxide] | 56 | 31 | 54
C[C@@H]1[C@@H](C)S(=O)(=O)NC(=O)c2ccc3c(c2)N(C[C@@H]2CC[C@H]2[C@@H](OCCN2C[C@@H](C)N[C@@H](C)C2)C2=C[C@H]1C2)C[C@@]1(CCCc2c1ccc(Cl)c2F)CO3 [compound 83, (1S,11′R,12′S,13′R,16′R,16a′R,18a′R,E)-6-chloro-16′-(2-((3 S,5R)-3,5-dimethylpiperazin-1-yl)ethoxy)-5-fluoro-11′,12′-dimethyl-3,4,12,′13′,16′,16a′,17′,18′,18a′,19′-decahydro-1′H,2H,3′H,11′H-spiro[naphthalene-1,2′-[5,7]etheno[13,15]methanocyclobuta[i][1,4]oxazepino[3,4-f][1]thia[2,7]diazacyclohexadecin]-8′(9′H)-one 10′,10′-dioxide] | 220 | 25 | 164
C[C@@H]1[C@@H](C)S(=O)(=O)NC(=O)c2ccc3c(c2)N(C[C@@H]2CC[C@H]2[C@@H](OCCN2CCNC(=O)C2)C2=C[C@H]1C2)C[C@@]1(CCCc2c1ccc(Cl)c2F)CO3 [compound 85, (1S,11′R,12′S,13′R,16′R,16a′R,18a′R,E)-6-chloro-5-fluoro-11′,12′-dimethyl-16′-(2-(3-oxopiperazin-1-yl)ethoxy)-3,4,12′,13′,16′,16a′,17′,18′,18a′,19′-decahydro-1′H,2H,3′H, 11′H-spiro[naphthalene-1,2′-[5,7]etheno[13,15]methanocyclobuta[i][1,4]oxazepino[3,4-f][1]thia[2,7]diazacyclohexadecin]-8′(9′H)-one 10′,10′-dioxide] | 73 | 20 | 124
C[C@@H]1[C@@H](C)S(=O)(=O)NC(=O)c2ccc3c(c2)N(C[C@@H]2CC[C@H]2[C@@H](OCCN2CCN(C)CC2)C2=C[C@H]1C2)C[C@@]1(CCCc2c1ccc(Cl)c2F)CO3 [compound 86, (1S,11′R,12′S,13′R,16′R,16a′R,18a′R,E)-6-chloro-5-fluoro-11′,12′-dimethyl-16′-(2-(4-methylpiperazin-1-yl)ethoxy)-3,4,12′,13′,16′,16a′,17′,18′,18a′,19′-decahydro-1′H,2H,3′H, 11′H-spiro[naphthalene-1,2′-[5,7]etheno[13,15]methanocyclobuta[i][1,4]oxazepino[3,4-f][1]thia[2,7]diazacyclohexadecin]-8′(9′H)-one 10′,10′-dioxide] | 3.8 | 10 | 64
C[C@@H]1[C@@H](C)S(=O)(=O)NC(=O)c2ccc3c(c2)N(C[C@@H]2CC[C@H]2[C@@H](OCCN2CCN(C4CCOCC4)CC2)C2=C[C@H]1C2)C[C@@]1(CCCc2c1ccc(Cl)c2F)CO3 [compound 89, (1S,11′R,12′S,13′R,16′R,16a′R,18a′R)-6-chloro-5-fluoro-11′,12′-dimethyl-16′-(2-(4-(tetrahydro-2H-pyran-4-yl)piperazin-1-yl)ethoxy)-3,4,12′,13′,16′,16a′,17′,18′,18a′,19′-decahydro-1′H,2H,3′H, 11′H-spiro[naphthalene-1,2′-[5,7]etheno[13,15]methanocyclobuta[i][1,4]oxazepino[3,4-f][1]thia[2,7]diazacyclohexadecin]-8′(9′H)-one 10′,10′-dioxide] | 7.5 | 11 | 53
CC(C)N1CCN(CCO[C@H]2C3=C[C@@H](C3)[C@H](C)[C@@H](C)S(=O)(=O)NC(=O)c3ccc4c(c3)N(C[C@@H]3CC[C@H]32)C[C@@]2(CCCc3c2ccc(Cl)c3F)CO4)CC1 [compound 90, (1S,11′R,12′S,13′R,16′R,16a′R,18a′R,E)-6-chloro-5-fluoro-16′-(2-(4-isopropylpiperazin-1-yl)ethoxy)-11′,12′-dimethyl-3,4,12′,13′,16′,16a′,17′,18′,18a′,19′-decahydro-1′H,2H,3′H, 11′H-spiro[naphthalene-1,2′-[5,7]etheno[13,15]methanocyclobuta[i][1,4]oxazepino[3,4-f][1]thia[2,7]diazacyclohexadecin]-8′(9′H)-one 10′,10′-dioxide] | 1.6 | 12 | 20

Further molecules by falling IC50 [1], results first:

IC50 [1] [nM] | IC50 [3] [nM] | SMILES | IC50 [2] [nM]
76 | 20 | C[C@@H]1[C@@H](C)S(=O)(=O)NC(=O)c2ccc3c(c2)N(C[C@@H]2CC[C@H]2[C@@H](OCCN2C[C@@H](C)N(C)[C@@H](C)C2)C2=C[C@H]1C2)C[C@@]1(CCCc2c1ccc(Cl)c2F)CO3 [compound 84, (1S,11′R,12′S,13′R,16′R,16a′R,18a′R,E)-6-chloro-5-fluoro-11′,12′-dimethyl-16′-(2-((3 S,5R)-3,4,5-trimethylpiperazin-1-yl)ethoxy)-3,4,12′,13′,16′,16a′,17′,18′,18a′,19′-decahydro-1′H,2H,3′H, 11′H-spiro[naphthalene-1,2′-[5,7]etheno[13,15]methanocyclobuta[i][1,4]oxazepino[3,4-f][1]thia[2,7]diazacyclohexadecin]-8′(9′H)-one 10′,10′-dioxide] | 65
40 | 13 | C[C@@H]1[C@@H](C)S(=O)(=O)NC(=O)c2ccc3c(c2)N(C[C@@H]2CC[C@H]2[C@@H](OCCN2CCS(=O)(=O)CC2)C2=C[C@H]1C2)C[C@@]1(CCCc2c1ccc(Cl)c2F)CO3 [compound 88, (1S,11′R,12′S,13′R,16′R,16a′R,18a′R,E)-6-chloro-16′-(2-(1,1-dioxidothiomorpholino)ethoxy)-5-fluoro-11′,12′-dimethyl-3,4,12′,13′,16′,16a′,17′,18′,18a′,19′-decahydro-1′H,2H,3′H,11′H-spiro[naphthalene-1,2′-[5,7]etheno[13,15]methanocyclobuta[i][1,4]oxazepino[3,4-f][1]thia[2,7]diazacyclohexadecin]-8′(9′H)-one 10′,10′-dioxide] | 118
27 | 8.5 | CC(=O)N1CCN(CCO[C@H]2C3=C[C@@H](C3)[C@H](C)[C@@H](C)S(=O)(=O)NC(=O)c3ccc4c(c3)N(C[C@@H]3CC[C@H]32)C[C@@]2(CCCc3c2ccc(Cl)c3F)CO4)CC1 [compound 87, (1S,11′R,12′S,13′R,16′R,16a′R,18a′R,E)-16′-(2-(4-acetylpiperazin-1-yl)ethoxy)-6-chloro-5-fluoro-11′,12′-dimethyl-3,4,12′,13′,16′,16a′,17′,18′,18a′,19′-decahydro-1′H,2H,3′H, 11′H-spiro[naphthalene-1,2′-[5,7]etheno[13,15]methanocyclobuta[i][1,4]oxazepino[3,4-f][1]thia[2,7]diazacyclohexadecin]-8′(9′H)-one 10′,10′-dioxide] | 369

— patent US11498928B2, “Macrocyclic spiroethers as Mcl-1 inhibitors” (ASCENTAGE PHARMA (SUZHOU) CO., LTD., priority 2019, dated 2022)
